Measured values as given in patent US12157746B2, “Tetrahydro-1H-pyrazino[2,1-a]isoindolylquinoline compounds for the treatment of autoimmune disease” (F. HOFFMANN-LA ROCHE AG, priority 2018, dated 2024).

The compounds below were run against T1, human TLR9 (Homo sapiens, UniProt Q9NR96) (assay: HEK293-Blue-hTLR-9 cells assay). Settings: HEK293-Blue-hTLR9 cells, ODN2006 stimulation, 20 hrs, SEAP reporter; read-out: HEK/hTLR9 IC50.
T1 sequence (Q9NR96 26-1032): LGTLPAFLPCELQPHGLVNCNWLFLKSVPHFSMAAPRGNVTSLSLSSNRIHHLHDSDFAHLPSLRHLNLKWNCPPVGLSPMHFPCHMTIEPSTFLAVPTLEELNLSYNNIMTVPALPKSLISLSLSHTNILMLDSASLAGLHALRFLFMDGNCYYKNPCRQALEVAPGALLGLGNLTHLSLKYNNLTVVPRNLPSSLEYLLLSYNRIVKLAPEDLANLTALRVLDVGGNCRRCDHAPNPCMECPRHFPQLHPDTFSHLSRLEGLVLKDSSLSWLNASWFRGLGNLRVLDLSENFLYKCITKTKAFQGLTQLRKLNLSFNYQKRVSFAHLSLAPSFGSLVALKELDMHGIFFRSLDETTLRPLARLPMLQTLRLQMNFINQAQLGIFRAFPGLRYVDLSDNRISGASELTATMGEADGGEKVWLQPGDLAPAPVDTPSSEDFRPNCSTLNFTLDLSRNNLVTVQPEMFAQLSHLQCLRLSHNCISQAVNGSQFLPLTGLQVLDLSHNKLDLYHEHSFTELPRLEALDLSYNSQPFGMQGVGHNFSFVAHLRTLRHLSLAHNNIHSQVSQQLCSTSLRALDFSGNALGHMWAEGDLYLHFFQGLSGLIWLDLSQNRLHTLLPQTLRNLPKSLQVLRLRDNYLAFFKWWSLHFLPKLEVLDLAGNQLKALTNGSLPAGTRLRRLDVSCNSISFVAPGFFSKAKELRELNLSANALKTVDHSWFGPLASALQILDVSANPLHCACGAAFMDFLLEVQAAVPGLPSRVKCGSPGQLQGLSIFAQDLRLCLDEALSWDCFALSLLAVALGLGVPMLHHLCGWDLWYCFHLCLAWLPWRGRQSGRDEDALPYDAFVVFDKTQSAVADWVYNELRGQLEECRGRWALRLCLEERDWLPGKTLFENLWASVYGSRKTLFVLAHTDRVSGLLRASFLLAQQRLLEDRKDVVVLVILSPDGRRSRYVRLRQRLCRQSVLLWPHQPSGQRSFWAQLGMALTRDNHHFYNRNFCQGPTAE
Assay type: cell-based
From the text: HEK293-Blue-hTLR-9 Cells Assay:
A stable HEK293-Blue-hTLR-9 cell line was purchased from InvivoGen (Cat. #: hkb-htlr9, San Diego. California USA). These cells were originally designed for studying the stimulation of human TLR9 by monitoring the activation of NF-κB. A SEAP (secreted embryonic alkaline phosphatase) reporter gene was placed under the control of the IFN-β minimal promoter fused to five NF-κB and AP-1-binding sites. The SEAP was induced by activating NF-κB and AP-1 via stimulating HEK-Blue hTLR9 cells with TLR9 ligands. Therefore the reporter expression was declined by TLR9 antagonist under the stimulation of a ligand, such as ODN2006 (Cat. #: tlrl-2006-1, Invivogen, San Diego, California USA), for incubation of 20 hrs. The cell culture supernatant SEAP reporter activity was determined using QUANTI-Blue™ kit (Cat. #: rep-qb1, Invivogen, San Diego, California, USA) at a wavelength of 640 nm, a detection medium that turns purple or blue in the presence of alkaline phosphatase.
HEK293-Blue-hTLR9 cells were incubated at a density of 250.000-450,000 cells/mL in a volume of 170 μL in a 96-well plate in Dulbecco's Modified Eagle's medium (DMEM) containing 4.5 g/L glucose, 50 U/mL penicillin, […], […], 2 mM L-glutamine, 10% (v/v) heat-inactivated fetal bovine serum with addition of 20 μL test compound 1n a serial dilution in the presence of final DMSO at 1% and 10 μL of 20 uM ODN2006 in above DMEM, perform incubation under 37° C. in a CO2 incubator for 20 hrs. Then 20 μL of the supernatant from each well was incubated with 180 μL Quanti-blue substrate solution at 37° C. for 2 h and the absorbance was read at 620˜655 nm using a spectrophotometer. The signaling pathway that TLR9 activation leads to downstream NF-κB activation has been widely accepted, and therefore similar reporter assay was modified for evaluating TLR9 antagonist.

IC50 [nM]	Structure (SMILES)
90.5	C[C@@H]1CN(c2ccc(C#N)c3ncccc23)C[C@@H]2c3ccc(N4CCOC5(CNC5)C4)cc3CN12 [Example 24, 5-[(4R,10bS)-4-methyl-8-(5-oxa-2,8-diazaspiro[3.5]nonan-8-yl)-3,4,6,10b-tetrahydro-1H-pyrazino[2,1-a]isoindol-2-yl]quinoline-8-carbonitrile]
116	C[C@@H]1CN(c2ccc(C#N)c3ncccc23)C[C@@H]2c3ccc(OCCN(C)C)cc3CN12 [Example 25, 5-[(4R,10bS)-8-[2-(dimethylamino)ethoxy]-4-methyl-3,4,6,10b-tetrahydro-1H-pyrazino[2,1-a]isoindol-2-yl]quinoline-8-carbonitrile]
55.8	C[C@@H]1CN(c2ccc(C#N)c3ncccc23)C[C@@H]2c3ccc(NCCN(C)C)cc3CN12 [Example 26, 5-[(4R,10bS)-8-[2-(dimethylamino)ethylamino]-4-methyl-3,4,6,10b-tetrahydro-1H-pyrazino[2,1-a]isoindol-2-yl]quinoline-8-carbonitrile]
83.4	C[C@@H]1CN(c2ccc(C#N)c3ncccc23)C[C@@H]2c3ccc(NC4CNC4)cc3CN12 [Example 28, 5-[(4R,10S)-8-(azetidin-3-ylamino)-4-methyl-3,4,6,10b-tetrahydro-1H-pyrazino[2,1-a]isoindol-2-yl]quinoline-8-carbonitrile]
43.3	C[C@@H]1CN(c2ccc(C#N)c3ncccc23)C[C@@H]2c3ccc(C4CNC4)cc3CN12 [Example 29, 5-[(4R,10bS)-8-(azetidin-3-yl)-4-methyl-3,4,6,10b-tetrahydro-1H-pyrazino[2,1-a]isoindol-2-yl]quinoline-8-carbonitrile]
96.6	C[C@@H]1CN(c2ccc(C#N)c3ncccc23)C[C@@H]2c3ccc(N[C@H]4CNC[C@H]4F)cc3CN12 [Example 30, 5-[(4R,10bS)-8-[[(3S,4R)-4-fluoropyrrolidin-3-yl]amino]-4-methyl-3,4,6,10b-tetrahydro-1H-pyrazino[2,1-a]isoindol-2-yl]quinoline-8-carbonitrile]
93.7	C[C@@H]1CN(c2ccc(C#N)c3ncccc23)C[C@@H]2c3ccc(N[C@H]4CNC[C@@H]4F)cc3CN12 [Example 31, 5-[(4R,10bS)-8-[[(3S,4S)-4-fluoropyrrolidin-3-yl]amino]-4-methyl-3,4,6,10b-tetrahydro-1H-pyrazino[2,1-a]isoindol-2-yl]quinoline-8-carbonitrile]
89.2	C[C@@H]1CN(c2ccc(C#N)c3ncccc23)C[C@@H]2c3ccc(N[C@@H]4CNC[C@@H]4F)cc3CN12 [Example 32, 5-[(4R,10bS)-8-[[(3R,4S)-4-fluoropyrrolidin-3-yl]amino]-4-methyl-3,4,6,10b-tetrahydro-1H-pyrazino[2,1-a]isoindol-2-yl]quinoline-8-carbonitrile]
100	C[C@@H]1CN(c2ccc(C#N)c3ncccc23)C[C@@H]2c3ccc(N[C@@H]4CNC[C@H]4F)cc3CN12 [Example 33, 5-[(4R,10bS)-8-[[(3R,4R)-4-fluoropyrrolidin-3-yl]amino]-4-methyl-3,4,6,10b-tetrahydro-1H-pyrazino[2,1-a]isoindol-2-yl]quinoline-8-carbonitrile]
66.6	CO[C@@H]1CNC[C@H]1Nc1ccc2c(c1)CN1[C@H](C)CN(c3ccc(C#N)c4ncccc34)C[C@H]21 [Example 34, 5-[(4R,10bS)-8-[[(3R,4R)-4-methoxypyrrolidin-3-yl]amino]-4-methyl-3,4,6,10b-tetrahydro-1H-pyrazino[2,1-a]isoindol-2-yl]quinoline-8-carbonitrile]
111	C[C@@H]1CN(c2ccc(C#N)c3ncccc23)C[C@@H]2c3ccc(N4CC5(CNCCO5)C4)cc3CN12 [Example 35, 5-[(4R,10bS)-4-methyl-8-(5-oxa-2,8-diazaspiro[3.5]nonan-2-yl)-3,4,6,10b-tetrahydro-1H-pyrazino[2,1-a]isoindol-2-yl]quinoline-8-carbonitrile]
100	C[C@@H]1CN(c2ccc(C#N)c3ncccc23)C[C@@H]2c3ccc(N4CC5(CNC5)C4)cc3CN12 [Example 36, 5-[(4R,10bS)-8-(2,6-diazaspiro[3.3]heptan-2-yl)-4-methyl-3,4,6,10b-tetrahydro-1H-pyrazino[2,1-a]isoindol-2-yl]quinoline-8-carbonitrile]
103	C[C@@H]1CN(c2ccc(C#N)c3ncccc23)C[C@@H]2c3ccc(N4CC5(CCN5)C4)cc3CN12 [Example 37, 5-[(4R,10bS)-8-(1,6-diazaspiro[3.3]heptan-6-yl)-4-methyl-3,4,6,10b-tetrahydro-1H-pyrazino[2,1-a]isoindol-2-yl]quinoline-8-carbonitrile]
66.8	C[C@@H]1CN(c2ccc(C#N)c3ncccc23)C[C@@H]2c3ccc(N4CC5(CN(C)C5)C4)cc3CN12 [Example 38, 5-[(4R,10bS)-4-methyl-8-(6-methyl-2,6-diazaspiro[3.3]heptan-2-yl)-3,4,6,10b-tetrahydro-1H-pyrazino[2,1-a]isoindol-2-yl]quinoline-8-carbonitrile]
123	C[C@@H]1CN(c2ccc(C#N)c3ncccc23)C[C@@H]2c3ccc(N4CC(C)(N)C4)cc3CN12 [Example 39, 5-[(4R,10bS)-8-(3-amino-3-methyl-azetidin-1-yl)-4-methyl-3,4,6,10b-tetrahydro-1H-pyrazino[2,1-a]isoindol-2-yl]quinoline-8-carbonitrile]
59.5	C[C@@H]1CN(c2ccc(C#N)c3ncccc23)C[C@@H]2c3ccc(N4C[C@H](N)[C@@H](O)C4)cc3CN12 [Example 40A, 5-[(4R,10bS)-8-[(3S,4S)-3-amino-4-hydroxy-pyrrolidin-1-yl]-4-methyl-3,4,6,10b-tetrahydro-1H-pyrazino[2,1-a]isoindol-2-yl]quinoline-8-carbonitrile]
< 31.8	COC12CNCC1CN(c1ccc3c(c1)CN1[C@H](C)CN(c4ccc(C#N)c5ncccc45)C[C@H]31)C2 (stereo partly drawn) [Example 41, 5-[(4R,10bS)-8-(3a-methoxy-1,2,3,4,6,6a-hexahydropyrrolo[3,4-c]pyrrol-5-yl)-4-methyl-3,4,6,10b-tetrahydro-1H-pyrazino[2,1-a]isoindol-2-yl]quinoline-8-carbonitrile]
65.4	CN[C@H]1CN(c2ccc3c(c2)CN2[C@H](C)CN(c4ccc(C#N)c5ncccc45)C[C@H]32)C[C@@H]1O [Example 42, 5-[(4R,10bS)-8-[(3S,4S)-3-hydroxy-4-(methylamino)pyrrolidin-1-yl]-4-methyl-3,4,6,10b-tetrahydro-1H-pyrazino[2,1-a]isoindol-2-yl]quinoline-8-carbonitrile]
55.5	CN[C@@H]1CN(c2ccc3c(c2)CN2[C@H](C)CN(c4ccc(C#N)c5ncccc45)C[C@H]32)C[C@H]1O [Example 43, 5-[(4R,10bS)-4-methyl-8-[(3R,4R)-3-hydroxy-4-(methylamino)pyrrolidin-1-yl]-3,4,6,10b-tetrahydro-1H-pyrazino[2,1-a]isoindol-2-yl]quinoline-8-carbonitrile]
102	C[C@@H]1CN(c2ccc(C#N)c3ncccc23)C[C@@H]2c3ccc(N4C[C@H]5NCCO[C@@H]5C4)cc3CN12 [Example 44, 5-[(4R,10bS)-4-methyl-8-[(4aR,7aR)-3,4,4a,5,7,7a-hexahydro-2H-pyrrolo[3,4-b][1,4]oxazin-6-yl]-3,4,6,10b-tetrahydro-1H-pyrazino[2,1-a]isoindol-2-yl]quinoline-8-carbonitrile]
